From patent US11578321B2, “Recombinant HBV reporter system” (Helmholtz Zentrum München Deutsches Forschungszentrum für …, priority 2018, dated 2023)

Experiments:
[1] = tested on: rHBV-CreN infected HepG2-NTCP-CreC/CIR cells; assay: Negative selection of rHBV-CreN infected cells with Neomycin, flow cytometry; type: cell-based, human; details: Neomycin 2 mg/ml for 30 days
Protocol: (§1) Cells were collected from 24-well plates using trypsin-versene at a 1:1 ratio (Gibco, 15400-054 and 15040-033). Cell pellets were resuspended in 1 ml of FACS buffer (PBS containing 1% BSA and 0.5 mM EDTA) and incubated with LIVE/DEAD™ Fixable Near-Infrared dead cell stain kit (Invitrogen, L10119). The samples were subjected to CytoFLEX S (Beckman Coulter) and the obtained data was analyzed by FlowJo software (v10, FlowJo LLC.).

[2] = tested on: rHBV-CreN; assay: rHBV-CreN infection of CreC/CIR reporter cells with entry inhibitor, DsRed-positive cells by flow cytometry; type: cell-based, hepatitis B virus
Protocol: HepG2-NTCP-CreC/CIR cells were seeded on collagen-coated plates with a density of 1.34×10^3 cells/mm^2 and cultured in DMEM containing 2.5% dimethylsulfoxide (DMSO) for 2 days prior to infection. The inoculum was prepared by diluting the virus in DMEM containing 2.5% DMSO and 4% PEG8000. […] The cells were inoculated for 24 hours and maintained in DMEM containing 2.5% DMSO for indicated time according to the experimental set-ups.
as §1

[3] = tested on: rHBV-CreN; assay: HBeAg ELISA of supernatant of rHBV-CreN infected CreC/CIR cells; type: cell-based, hepatitis B virus; details: rHBV-CreN MOI=250 with MyrB, day 7 post-infection
Protocol: (§2) HepG2-NTCP-CreC/CIR cells were seeded on collagen-coated plates with a density of 1.34×10^3 cells/mm^2 and cultured in DMEM containing 2.5% dimethylsulfoxide (DMSO) for 2 days prior to infection. The inoculum was prepared by diluting the virus in DMEM containing 2.5% DMSO and 4% PEG8000. For blocking rHBV entry, Myrcludex B (200 nM) was added to the rHBV inoculum (Li and Urban, 2016, Cancer research 42, 3858-3863). The cells were inoculated for 24 hours and maintained in DMEM containing 2.5% DMSO for indicated time according to the experimental set-ups.
The amount of HBeAg in cell-derived supernatants was measured using a commercial qualitative immunoassay—Enzygnost HBe monoclonal (Siemens, OQDM11) and automated BEP III system (Siemens Healthcare).

[4] = tested on: rHBV-CreN; assay: Western blot of Co-InCre reconstitution and core protein in rHBV-CreN infected CreC/CIR cells; type: cell-based, hepatitis B virus; details: rHBV-CreN infected CreC/CIR cells treated with MyrB
Protocol: as §2
Cellular proteins were isolated using RIPA buffer (Pierce, 89900) containing a protease inhibitor cocktail (Roche, 11836153001). The proteins were separated by 12% Sodium dodecyl sulphate-polyacrylamide gel electrophoresis (SDS-PAGE) and subsequently transferred onto a polyvinylidene difluoride (PVDF) membrane (Bio-Rad, 162-0177). The blotted membrane was blocked with 5% milk-TBST (20 mM Tris-HCl, pH7.4, 140 mM NaCl, 1% Tween 20). The antibodies were diluted in 1.5% milk-TBST. For core protein detection, an in-house hybridoma supernatant (8C9) was used in a 1:1 dilution. For Co-InCre detection, an anti-Cre antibody (Merck, 69050) was used in a 1:1000 dilution. […]-Actin (1:5000; Sigma, A5441) was used as a reference protein. […] The chemiluminescent signal was detected by Intas ECL ChemoCam.

[5] = tested on: rHBV-CreN; assay: Detection of Cre-lox recombination by PCR in rHBV-CreN infected CreC/CIR cells; type: cell-based, hepatitis B virus; details: rHBV-CreN infected CreC/CIR cells treated with MyrB
Protocol: as §2
Genomic DNA of the cells was isolated using NucleoSpin® Tissue Kit (Macherey-Nagel, 740952.250). The Cre-lox recombination was analyzed by PCR using primers flanking the neomycin sequence (forward, 5′-[…]-3′ (SEQ ID NO: 29) and reverse, 5′-GGTACCGTCGACTGCAGAT-3′ (SEQ ID NO: 30)). The PCR was performed with 250 ng of genomic DNA and Phusion® Hot Start Flex DNA Polymerase (New England Biolabs, M0535S). The reaction required the following conditions: 1 cycle of denaturation at 98° C. for 30 seconds, 35 cycles of amplification (98° C. for 10 seconds, 61° C. for 30 seconds, 72° C. for 45 seconds), and 1 cycle of extension at 72° C. for 1 minute. The PCR products were examined by agarose gel electrophoresis.

Neomycin
reduction of the number of DsRed-positive cells compared to untreated group [1]: 3.6 fold

Myrcludex-B [MyrB]
number of DsRed-positive cells ([2]; CreC/CIR cells, rHBV-CreN MOI=250, MyrB added to the inoculum, day 7 post-infection, FACS): less than 1% | percentage of DsRed-positive cells ([2]; HepG2-NTCP-CreC/CIR cells, rHBV-CreN MOI=300 virions/cell, Myrcludex B 200 nM, 10 days post infection, flow cytometry): less than 1% | HBeAg level [3]: comparable to that of the mock sample | Co-InCre detection (Western blot) [4]: not detected | core protein detection (Western blot) [4]: not detected | 0.2-kb band (ΔNeo) PCR product [5]: absent
